Reference: PubChem BioAssay AID192 (DTP/NCI, 2004)
Values joined by “and” are separate entries in the source; they are usually repeats but may differ in a detail not shown here. Equal values may be shown once. Inconclusive results and toxic doses are left out. Rule for the calls: active = survival T/C of 150% or more; inactive = T/C below 125% in these data.

Test system: BDF1 mice, B16 melanoma ip, median survival T/C
Test: NCI In Vivo Anticancer Drug Screen. Data for tumor model B16 Melanoma (intraperitoneal) in B6D2F1 (BDF1) mice
Conditions: endpoint: median survival time, higher = longer survival
How it was run: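 The ratio T/C compares compound-treated mice with vehicle-treated controls, using survival or tumor size as the endpoint in a transplantable tumor model.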

[1] = dose: 100.0 mg/kg/injection, schedule: Q01DX009 (ip), vehicle: Klucel (hydroxypropylcellulose) (HPC)
[2] = dose: 200.0 mg/kg/injection, schedule: Q01DX009 (ip), vehicle: Klucel (hydroxypropylcellulose) (HPC)
[3] = dose: 400.0 mg/kg/injection, schedule: Q01DX009 (ip), vehicle: Klucel (hydroxypropylcellulose) (HPC)
[4] = dose: 50.0 mg/kg/injection, schedule: Q01DX009 (ip), vehicle: Klucel (hydroxypropylcellulose) (HPC)
[5] = dose: 100.0 mg/kg/injection, schedule: Q01DX009 (ip), vehicle: saline
[6] = dose: 200.0 mg/kg/injection, schedule: Q01DX009 (ip), vehicle: saline
[7] = dose: 400.0 mg/kg/injection, schedule: Q01DX009 (ip), vehicle: saline
[8] = dose: 25.0 mg/kg/injection, schedule: Q01DX009 (ip), vehicle: Klucel (hydroxypropylcellulose) (HPC)
[9] = dose: 25.0 mg/kg/injection, schedule: Q01DX009 (ip), vehicle: saline with Tween-80
[10] = dose: 12.5 mg/kg/injection, schedule: Q01DX009 (ip), vehicle: saline
[11] = dose: 25.0 mg/kg/injection, schedule: Q01DX009 (ip), vehicle: saline
[12] = dose: 50.0 mg/kg/injection, schedule: Q01DX009 (ip), vehicle: saline
[13] = dose: 6.25 mg/kg/injection, schedule: Q01DX009 (ip), vehicle: saline
[14] = dose: 6.25 mg/kg/injection, schedule: Q01DX009 (ip), vehicle: Klucel (hydroxypropylcellulose) (HPC)
[15] = dose: 12.5 mg/kg/injection, schedule: Q01DX009 (ip), vehicle: Klucel (hydroxypropylcellulose) (HPC)
[16] = dose: 25.0 mg/kg/injection, schedule: Q04DX003 (ip), vehicle: Klucel (hydroxypropylcellulose) (HPC)

Measured: T/C

CCN(CCCCOC(=O)c1ccc(OC)c(OC)c1)C(C)Cc1ccc(OC)cc1 (stereo not drawn)
inactive: dose: 1.32 mg/kg/injection, schedule: Q01DX009 (ip), vehicle: saline 93 % of control | dose: 2.65 mg/kg/injection, schedule: Q01DX009 (ip), vehicle: saline 98 % of control | dose: 4.68 mg/kg/injection, schedule: Q04DX003 (ip), vehicle: saline 116 % of control | dose: 5.31 mg/kg/injection, schedule: Q01DX009 (ip), vehicle: saline 105 % of control and 107 % of control | dose: 9.37 mg/kg/injection, schedule: Q04DX003 (ip), vehicle: saline 111 % of control | dose: 10.6 mg/kg/injection, schedule: Q01DX009 (ip), vehicle: saline 88 % of control | dose: 10.62 mg/kg/injection, schedule: Q01DX009 (ip), vehicle: saline 88 % of control | dose: 18.75 mg/kg/injection, schedule: Q04DX003 (ip), vehicle: saline 119 % of control | dose: 21.2 mg/kg/injection, schedule: Q01DX009 (ip), vehicle: saline 90 % of control | dose: 21.25 mg/kg/injection, schedule: Q01DX009 (ip), vehicle: saline 91 % of control and 109 % of control | dose: 37.5 mg/kg/injection, schedule: Q04DX003 (ip), vehicle: saline 113 % of control | dose: 42.5 mg/kg/injection, schedule: Q01DX009 (ip), vehicle: saline 95 % of control and 101 % of control | dose: 75.0 mg/kg/injection, schedule: Q04DX003 (ip), vehicle: saline 119 % of control | dose: 85.0 mg/kg/injection, schedule: Q01DX009 (ip), vehicle: saline 87 % of control | dose: 110.0 mg/kg/injection, schedule: Q04DX003 (ip), vehicle: saline 112 % of control

CCN(CC)CCOC(=O)Cc1ccccc1
inactive: [1] 106 % of control | [2] 103 % of control | [3] 103 % of control

O=C(Nc1ccccc1)OCC(CN1CCCCC1)OC(=O)Nc1ccccc1 (stereo not drawn)
inactive: dose: 50.0 mg/kg/injection, schedule: Q04DX003 (ip), vehicle: saline with Tween-80 104 % of control | dose: 100.0 mg/kg/injection, schedule: Q04DX003 (ip), vehicle: saline with Tween-80 102 % of control | dose: 200.0 mg/kg/injection, schedule: Q04DX003 (ip), vehicle: saline with Tween-80 100 % of control

Nc1c(Br)cc2c(c1Br)Cc1cc(Cl)ccc1-2
inactive: dose: 6.25 mg/kg/injection, schedule: Q01DX009 (ip), vehicle: other 108 % of control | dose: 12.5 mg/kg/injection, schedule: Q01DX009 (ip), vehicle: other 96 % of control | dose: 25.0 mg/kg/injection, schedule: Q01DX009 (ip), vehicle: other 96 % of control | [4] 94 % of control | dose: 50.0 mg/kg/injection, schedule: Q01DX009 (ip), vehicle: other 89 % of control | [1] 107 % of control | dose: 100.0 mg/kg/injection, schedule: Q04DX003 (ip), vehicle: other 94 % of control | dose: 200.0 mg/kg/injection, schedule: Q04DX003 (ip), vehicle: other 86 % of control

CCOC(=O)CCN1CC(C)OC(C)C1 (stereo not drawn)
inactive: [5] 118 % of control | [6] 115 % of control | [7] 118 % of control

C(=C\c1ccccc1)/C[P+](c1ccccc1)(c1ccccc1)c1ccccc1
inactive: dose: 0.06 mg/kg/injection, schedule: Q01DX009 (ip), vehicle: saline sonified 100 % of control | dose: 1.25 mg/kg/injection, schedule: Q01DX009 (ip), vehicle: saline sonified 93 % of control | dose: 2.5 mg/kg/injection, schedule: Q01DX009 (ip), vehicle: saline sonified 97 % of control | dose: 5.0 mg/kg/injection, schedule: Q01DX009 (ip), vehicle: saline sonified 91 % of control

COc1ccc(N2CSC(=S)N(c3ccc(OC)cc3)C2)cc1
inactive: dose: 8.0 mg/kg/injection, schedule: Q01DX009 (ip), vehicle: saline with Tween-80 97 % of control | dose: 12.0 mg/kg/injection, schedule: Q01DX009 (ip), vehicle: saline with Tween-80 90 % of control | dose: 18.0 mg/kg/injection, schedule: Q01DX009 (ip), vehicle: saline with Tween-80 90 % of control | [8] 102 % of control | [9] 112 % of control | [4] 94 % of control | dose: 50.0 mg/kg/injection, schedule: Q01DX009 (ip), vehicle: saline with Tween-80 115 % of control | [1] 114 % of control

CCCCC(=O)OCC1OC(n2cnc3c(=S)nc[nH]c32)C(OC(=O)CCCC)C1OC(=O)CCCC (stereo not drawn)
inactive: [9] 119 % of control

COc1cc(C(=O)NCCS(=O)(=O)O)cc(OC)c1OC
inactive: [5] 97 % of control | [6] 111 % of control | [7] 103 % of control

NCC1OC(OC2C(N)CC(N)C(O)C2OC2OC(CO)C(O)C2O)C(N)C(O)C1O (stereo not drawn)
inactive: [10] 93 % of control | [11] 100 % of control | [12] 93 % of control | [5] 96 % of control

Cc1cc2oc(=O)c3c(c2c(O)c1CN1CCOCC1)CCCC3
inactive: dose: 64.0 mg/kg/injection, schedule: Q01DX009 (ip), vehicle: Klucel (hydroxypropylcellulose) (HPC) 103 % of control | dose: 128.0 mg/kg/injection, schedule: Q01DX009 (ip), vehicle: Klucel (hydroxypropylcellulose) (HPC) 98 % of control | dose: 256.0 mg/kg/injection, schedule: Q01DX009 (ip), vehicle: Klucel (hydroxypropylcellulose) (HPC) 108 % of control

CC(Cc1ccccc1)NCCn1cnc2c1c(=O)n(C)c(=O)n2C (stereo not drawn)
inactive: dose: 3.12 mg/kg/injection, schedule: Q01DX009 (ip), vehicle: saline 112 % of control | [13] 115 % of control | [10] 100 % of control | [11] 109 % of control | [12] 115 % of control

CCCCOC(=O)C(CC)(CC)C(=O)OCCCC
inactive: [5] 110 % of control | [6] 113 % of control | [7] 93 % of control

CC(=O)CC(C)=NCC(C)N=C(C)CC(C)=O.c1cc[c]([Sn][c]2ccccc2)cc1 (stereo not drawn)
inactive: dose: 5.0 mg/kg/injection, schedule: Q04DX003 (ip), vehicle: saline with Tween-80 119 % of control

BrCCC[P+](c1ccccc1)(c1ccccc1)c1ccccc1
inactive: dose: 3.13 mg/kg/injection, schedule: Q01DX009 (ip), vehicle: Klucel (hydroxypropylcellulose) (HPC) 106 % of control | dose: 3.13 mg/kg/injection, schedule: Q01DX009 (ip), vehicle: saline 105 % of control | dose: 3.13 mg/kg/injection, schedule: Q04DX003 (ip), vehicle: saline 89 % of control | [14] 103 % of control | [13] 100 % of control | dose: 6.25 mg/kg/injection, schedule: Q04DX003 (ip), vehicle: saline 89 % of control | [15] 106 % of control | [10] 107 % of control | dose: 12.5 mg/kg/injection, schedule: Q04DX003 (ip), vehicle: saline 89 % of control | [8] 90 % of control | [16] 90 % of control

CCCCCCC(=O)NC1=C(N2CC2)C(=O)C(NC(=O)CCCCCC)=C(N2CC2)C1=O
inactive: [14] 110 % of control | [15] 115 % of control and 120 % of control | [8] 100 % of control

CC(O)COc1ccc(OCc2ccccc2)cc1 (stereo not drawn)
inactive: [1] 106 % of control | [2] 109 % of control | [3] 100 % of control

O=C1C(CCSc2ccccc2)C(=O)N(c2ccccc2)C1c1ccccc1 (stereo not drawn)
inactive: [1] 116 % of control | [2] 113 % of control | [3] 110 % of control

C=C1C(=O)OC2C3OC(C)(CCC(O)C3COC(C)=O)CC(OC(=O)/C(=C/C)COC(C)=O)C12 (stereo not drawn)
inactive: dose: 0.04 mg/kg/injection, schedule: Q01DX009 (ip), vehicle: suspension in saline 111 % of control | dose: 0.09 mg/kg/injection, schedule: Q01DX009 (ip), vehicle: suspension in saline 109 % of control | dose: 0.18 mg/kg/injection, schedule: Q01DX009 (ip), vehicle: suspension in saline 107 % of control | dose: 0.37 mg/kg/injection, schedule: Q01DX009 (ip), vehicle: suspension in saline 91 % of control | [14] 91 % of control | [15] 98 % of control | [8] 105 % of control

CCOc1cc(C2=NNc3n[nH]c(=S)n3N2)ccc1O
inactive: [8] 96 % of control | [16] 97 % of control | [4] 100 % of control | dose: 50.0 mg/kg/injection, schedule: Q04DX003 (ip), vehicle: Klucel (hydroxypropylcellulose) (HPC) 102 % of control | dose: 100.0 mg/kg/injection, schedule: Q04DX003 (ip), vehicle: Klucel (hydroxypropylcellulose) (HPC) 122 % of control

O=C(C(=O)c1cc(Br)ccc1O)c1cc(Br)ccc1O
inactive: [1] 96 % of control | [2] 106 % of control
